# According to US12139492B2 (Endotarget Inc., priority 2021, dated 2024):
# Where two headings read alike, the source gives them in different places.
# Assays:
# JeKo-1 cells = assay: Antiproliferative effect, MTS cell viability assay, JeKo-1 cells; format: cell-based; settings: JeKo-1 mantle cell lymphoma cells, read-out: IC50 (anti-proliferation) JeKO-1 cells
# Outline: (§1)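 MTS read-out, A490 of formazan from metabolically active cells; compound 0–10 μM (0, 0.001, 0.01, 0.1, 1, 10 μM), 72 h exposure.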
# Mino cells = assay: Antiproliferative effect, MTS cell viability assay, Mino cells; format: cell-based; settings: Mino mantle cell lymphoma cells, read-out: IC50 (anti-proliferation) Mino cells
# Outline: as §1
# BTK = BTK (Homo sapiens, UniProt Q06187); assay: Degradation of BTK protein in Namalwa cells (Western blot; DC50, Dmax)
# Sequence of BTK (Q06187 whole entry): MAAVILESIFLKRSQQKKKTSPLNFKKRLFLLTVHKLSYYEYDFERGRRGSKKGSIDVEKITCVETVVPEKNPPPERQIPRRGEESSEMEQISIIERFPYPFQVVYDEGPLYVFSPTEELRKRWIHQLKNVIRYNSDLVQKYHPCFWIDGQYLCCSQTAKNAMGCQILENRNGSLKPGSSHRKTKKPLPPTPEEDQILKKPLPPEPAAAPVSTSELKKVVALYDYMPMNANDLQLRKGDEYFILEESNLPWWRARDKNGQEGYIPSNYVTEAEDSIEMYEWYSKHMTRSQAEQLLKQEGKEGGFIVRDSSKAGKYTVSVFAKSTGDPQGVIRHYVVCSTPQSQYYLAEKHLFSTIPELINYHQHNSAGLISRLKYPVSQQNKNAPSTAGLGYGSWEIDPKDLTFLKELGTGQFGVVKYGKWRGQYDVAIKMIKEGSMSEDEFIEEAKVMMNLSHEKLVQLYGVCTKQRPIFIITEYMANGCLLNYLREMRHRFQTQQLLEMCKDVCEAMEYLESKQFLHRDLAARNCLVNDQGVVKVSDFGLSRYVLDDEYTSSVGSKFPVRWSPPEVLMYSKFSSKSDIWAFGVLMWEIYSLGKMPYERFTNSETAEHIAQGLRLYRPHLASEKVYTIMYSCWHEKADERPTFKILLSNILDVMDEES
# [1] = read-out: DC50 (BTK degradation), concentration giving 50% reduction of BTK expression level, cell line not given
# [2] = read-out: Dmax (BTK degradation)
# [3] = BTK degradation, cell line not given
Molecule,IC50 (JeKo-1 cells; Homo sapiens) [µM],"IC50 (Mino cells; Homo sapiens, MINO) [µM]",DC50 (BTK; [1]) [µM],Dmax (BTK; [2]) [%],Dmax (BTK) [%],DC50 (BTK; [3]) [µM],IC50 (JeKo-1 cells) [µM],IC50 (Mino cells) [µM],Dmax (BTK degradation) (BTK; cell line not given),IC50 (Mino cells; Homo sapiens) [µM]
"Nc1ncnc2c1c(-c1ccc(Oc3ccccc3)cc1)nn2C1CCN(CCCN2CCC(CN3CCN(c4ccc(NC5CCC(=O)NC5=O)cc4)CC3)CC2)CC1 (stereo not drawn) [Compound 560, 3-((4-(4-((1-(3-(4-(4-amino-3-(4-phenoxyphenyl)-1H-pyrazolo[3,4-d]pyrimidin-1-yl)piperidin-1-yl)propyl)piperidin-4-yl)methyl)piperazin-1-yl)phenyl)amino)piperidine-2,6-dione]",< 1,< 1,< 0.01,> 90,,,,,,
"NC(=O)c1c(-c2ccc(Oc3ccccc3)cc2)nn2c1NCCC2C1CCN(C2CCN(CCN3CCC(c4ccc5c(c4)C(=O)N(C4CCC(=O)NC4=O)C5=O)CC3)CC2)CC1 (stereo not drawn) [Compound 311, 7-(1′-(2-(4-(2-(2,6-dioxopiperidin-3-yl)-1,3-dioxoisoindolin-5-yl)piperidin-1-yl)ethyl)-[1,4′-bipiperidin]-4-yl)-2-(4-phenoxyphenyl)-4,5,6,7-tetrahydropyrazolo[1,5-a]pyrimidine-3-carboxamide]",> 10,> 10,,,> 75,> 0.05,,,,
"Nc1ncnc2c1c(-c1ccc(Oc3ccccc3)cc1)nn2C1CCN(C[C@@H]2CCN(C[C@@H]3CCN(c4ccc5c(c4)C(=O)N(C4CCC(=O)NC4=O)C5=O)C3)C2)CC1 (stereo partly drawn) [Compound 447c, 5-((S)-3-(((S)-3-((4-(4-amino-3-(4-phenoxyphenyl)-1H-pyrazolo[3,4-d]pyrimidin-1-yl)piperidin-1-yl)methyl)pyrrolidin-1-yl)methyl)pyrrolidin-1-yl)-2-(2,6-dioxopiperidin-3-yl)isoindoline-1,3-dione]",1 to 10,1 to 10,< 0.01,> 90,,,,,,
"NC(=O)c1c(-c2ccc(Oc3ccccc3)cc2)nn2c1NCCC2C1CCN(CCOCCOCCN2CCN(c3ccc4c(c3)C(=O)N(C3CCC(=O)NC3=O)C4=O)CC2)CC1 (stereo not drawn) [Compound 269, 7-(1-(2-(2-(2-(4-(2-(2,6-dioxopiperidin-3-yl)-1,3-dioxoisoindolin-5-yl)piperazin-1-yl)ethoxy)ethoxy)ethyl)piperidin-4-yl)-2-(4-phenoxyphenyl)-4,5,6,7-tetrahydropyrazolo[1,5-a]pyrimidine-3-carboxamide]",> 10,> 10,,,> 90,0.01 to 0.05,,,,
"(7S)-7-(1-((1-(4-(2-(2,6- dioxopiperidin-3-yl)-1,3- dioxoisoindolin-5-yl)piperazine-1- carbonyl)piperidin-1- yl)methyl)piperidin-4-yl)-2-(4- phenoxyphenyl)-4,5,6,7- tetrahydropyrazolo[1,5-a]pyrimidine- 3-carboxamide [Compound 397]",,,> 0.05,,,,1 to 10,> 10,B (B >75%),
"NC(=O)c1c(-c2ccc(Oc3ccccc3)cc2)nn2c1NCC[C@H]2C1CCN(CC2CCN(C(=O)N3CCC(CN4CCN(c5ccc6c(c5)CN(C5CCC(=O)NC5=O)C6=O)CC4)CC3)CC2)CC1 (stereo partly drawn) [Compound 410, (7S)-7-(1-((1-(4-((4-(2-(2,6-dioxopiperidin-3-yl)-1-oxoisoindolin-5-yl)piperazin-1-yl)methyl)piperidine-1-carbonyl)piperidin-4-yl)methyl)piperidin-4-yl)-2-(4-phenoxyphenyl)-4,5,6,7-tetrahydropyrazolo[1,5-a]pyrimidine-3-carboxamide]",1 to 10,1 to 10,< 0.01,> 90,,,,,,
"Nc1ncnc2c1c(-c1ccc(Oc3ccccc3)cc1)nn2C1CCN(CCN2CCC(N3CCN(c4ccc5c(c4)C(=O)N(C4CCC(=O)NC4=O)C5=O)CC3)C2)CC1 (stereo not drawn) [Compound 459, 5-(4-(1-(2-(4-(4-amino-3-(4-phenoxyphenyl)-1H-pyrazolo(3,4-d)pyrimidin-1-yl)piperidin-1-yl)ethyl)pyrrolidin-3-yl)piperazin-1-yl)-2-(2,6-dioxopiperidin-3-yl)isoindoline-1,3-dione]",< 1,,< 0.01,> 90,,,,,,< 1
"Nc1ncnc2c1c(-c1ccc(Oc3ccccc3)cc1)nn2C1CCN(C2CCN(CC3CN(c4ccc5c(c4)CN(C4CCC(=O)NC4=O)C5=O)C3)CC2)CC1 (stereo not drawn) [Compound 434, 3-(5-(3-((4-(4-amino-3-(4-phenoxyphenyl)-1H-pyrazolo[3,4-d]pyrimidin-1-yl)-[1,4′-bipiperidin]-1′-yl)methyl)azetidin-1-yl)-1-oxoisoindolin-2-yl)piperidine-2,6-dione]",1 to 10,< 1,0.01 to 0.05,> 90,,,,,,
"Nc1ncnc2c1c(-c1ccc(Oc3ccccc3)cc1)nn2C1CCN(CCN2CCC(N3CCN(c4ccc5c(c4)C(=O)N(C4CCC(=O)NC4=O)C5=O)CC3)C2)CC1 (single isomer, unassigned) [Compound 459a, 5-(4-(1-(2-(4-(4-amino-3-(4-phenoxyphenyl)-1H-pyrazolo[3,4-d]pyrimidin-1-yl)piperidin-1-yl)ethyl)pyrrolidin-3-yl)piperazin-1-yl)-2-(2,6-dioxopiperidin-3-yl)isoindoline-1,3-dione]",< 1,< 1,0.01 to 0.05,> 90,,,,,,
"Nc1ncnc2c1c(-c1ccc(Oc3ccccc3)cc1)nn2C1CCN(C2CCN(CCCN3CCN(c4ccc5c(c4)CN(C4CCC(=O)NC4=O)C5=O)CC3)CC2)CC1 (stereo not drawn) [Compound 222, 3-(5-(4-(3-(4-(4-amino-3-(4-phenoxyphenyl)-1H-pyrazolo[3,4-d]pyrimidin-1-yl)-[1,4′-bipiperidin]-1′-yl)propyl)piperazin-1-yl)-1-oxoisoindolin-2-yl)piperidine-2,6-dione]",1 to 10,1 to 10,,,> 90,0.01 to 0.05,,,,
"Nc1ncnc2c1c(-c1ccc(Oc3ccccc3)cc1)nn2C1CCN(CC2CN(CC3CN(c4ccc5c(c4)CN(C4CCC(=O)NC4=O)C5=O)C3)C2)CC1 (stereo not drawn) [Compound 442, 3-(5-(3-((3-((4-(4-amino-3-(4-phenoxyphenyl)-1H-pyrazolo[3,4-d]pyrimidin-1-yl)piperidin-1-yl)methyl)azetidin-1-yl)methyl)azetidin-1-yl)-1-oxoisoindolin-2-yl)piperidine-2,6-dione]",> 10,> 10,,< 50,,,,,,
"Nc1ncnc2c1c(-c1ccc(Oc3ccccc3)cc1)nn2C1CCN(C2CCN(CCN3CCC(c4ccc(N5CCC(=O)NC5=O)cc4)CC3)CC2)CC1 [Compound 569, 1-(4-(1-(2-(4-(4-amino-3-(4-phenoxyphenyl)-1H-pyrazolo[3,4-d]pyrimidin-1-yl)-[1,4′-bipiperidin]-1′-yl)ethyl)piperidin-4-yl)phenyl)dihydropyrimidine-2,4(1H,3H)-dione]",1 to 10,1 to 10,0.01 to 0.05,> 90,,,,,,
"NC(=O)c1c(-c2ccc(Oc3ccccc3)cc2)nn2c1NCC[C@H]2C1CCN(C2CCN(C(=O)N3CCC(N4CCN(c5ccc6c(c5)CN(C5CCC(=O)NC5=O)C6=O)CC4)CC3)CC2)CC1 (stereo partly drawn) [Compound 382, (7S)-7-(1′-(4-(4-(2-(2,6-dioxopiperidin-3-yl)-1-oxoisoindolin-5-yl)piperazin-1-yl)piperidine-1-carbonyl)-[1,4′-bipiperidin]-4-yl)-2-(4-phenoxyphenyl)-4,5,6,7-tetrahydropyrazolo[1,5-a]pyrimidine-3-carboxamide]",< 1,< 1,,,> 90,< 0.01,,,,
"NC(=O)c1c(-c2ccc(Oc3ccccc3)cc2)nn2c1NCCC2C1CCN(CC2CCN(C(=O)N3CCC(CN4CCC(c5ccc6c(c5)C(=O)N(C5CCC(=O)NC5=O)C6=O)CC4)CC3)CC2)CC1 (stereo not drawn) [Compound 375, 7-(1-((1-(4-((4-(2-(2,6-dioxopiperidin-3-yl)-1,3-dioxoisoindolin-5-yl)piperidin-1-yl)methyl)piperidine-1-carbonyl)piperidin-4-yl)methyl)piperidin-4-yl)-2-(4-phenoxyphenyl)-4,5,6,7-tetrahydropyrazolo[1,5-a]pyrimidine-3-carboxamide]",1 to 10,1 to 10,,,> 75,0.01 to 0.05,,,,
"NC(=O)c1c(-c2ccc(Oc3ccccc3)cc2)nn2c1NCCC2C1CCN(C(=O)N2CCC(CC3CCN(c4ccc5c(c4)C(=O)N(C4CCC(=O)NC4=O)C5=O)CC3)CC2)CC1 (stereo not drawn) [Compound 277, 7-(1-(4-((1-(2-(2,6-dioxopiperidin-3-yl)-1,3-dioxoisoindolin-5-yl)piperidin-4-yl)methyl)piperidine-1-carbonyl)piperidin-4-yl)-2-(4-phenoxyphenyl)-4,5,6,7-tetrahydropyrazolo[1,5-a]pyrimidine-3-carboxamide]",1 to 10,< 1,,,> 90,< 0.01,,,,
"Nc1ncnc2c1c(-c1ccc(Oc3ccccc3)cc1)nn2C1CCN(CC2CCN(CCCC3CCN(c4ccc5c(c4)C(=O)N(C4CCC(=O)NC4=O)C5=O)CC3)CC2)CC1 (stereo not drawn) [Compound 211, 5-(4-(3-(4-((4-(4-amino-3-(4-phenoxyphenyl)-1H-pyrazolo[3,4-d]pyrimidin-1-yl)piperidin-1-yl)methyl)piperidin-1-yl)propyl)piperidin-1-yl)-2-(2,6-dioxopiperidin-3-yl)isoindoline-1,3-dione]",> 10,1 to 10,,,> 75,0.01 to 0.05,,,,
